As a reminder, the IC50 is the point on the concentration scale where inhibition reaches its midpoint. High values mean weaker potency in that assay, low ones greater potency in that assay.

For 13 compounds, IC50 results are on record in patent US20240360137A1 (Novartis AG, priority 2023, published 2024).

Common to all, as to experiment: CDKi biochemical assay (TR-FRET, phosphorylation of S780 on RB1 peptide)
The target in one test is CDK4/cyclinD1 (Homo sapiens, UniProt P11802). Conditions: CDK4/cyclinD1 20 pM, 1 mM ATP, 60 min at 25° C. How it is done:
(§1) Biochemical assays measured the inhibitory effects of compounds in this disclosure on the enzymatic activity of CDK enzyme in complex with Cyclin protein partner by phosphorylation of Ser-780 (S780) on retinoblastoma protein peptide (RB1) in the presence of 1 mM adenosime-5-triphosphate (ATP) and varying concentration of test compound in 20 mM 2-[4-(2-hydroxyethyl)paperazin-1-yl] ethanesulfonic acid (HEPES), pH 7.5, 10 mM MgCl2, 1 mM dithiothreitol (DTT), 0.01% bovine serum albumin (BSA), 0.005% Tween 20. Total Reaction volume of 10 μL proceeded for 60 minutes at room temperature (25° C.) and were quenched with 5 μL of 200 mM 2′,2″,2′″-(Ethane-1,2-diyldinitrilo)tetraacetic acid (EDTA) pH 8.0 before addition of 5 μL detection solution containing 100 nM fluorophore conjugate streptavidin allophycocyanin (SA-APC), 2 nM Europium labelled Anti-p-RB(S780)-K (Perkin Elmer, 64CUSKAY), 50 mM HEPES, pH 7.5, 400 mM potassium fluoride (KF), 0.1% BSA, and 0.01% Tween-20. Phosphorylation of S780 on RB1 peptide (His-MBP-RB1[773-924]-SEQ ID NO. 9) was detected by TR-FRET after 3 hour incubation with detection solution. Percent phosphorylation activity was plotted against log concentration of compound to generate an apparent ICSO. The following CDK enzyme in complex with different cyclin proteins and protein peptide substrate were used in these assays: • CDK1/CyclinB1, Avi-tag, 10 pM used in the assay • CDK2/CyclinE1, Avi-tag, 100 pM used in the assay • CDK4/cyclinD1, Avi-tag, 20 pM used in the assay • CDK6/cyclinD3, Avi-tag, 10 pM used in the assay • His-MBP-RB1[773-924], Avi-tag, 200 nM used in the assay
(§2) The avi-tag is a C-terminal fusion on the CDK1/2/4/6 sequence in each of these two-protein complexes. The known avi-tag sequence, […] (SEQ ID NO. 10), is a substrate for E. coli biotin ligase BirA, which covalently attaches a biotin molecule to the e-amino group of the lysine in that sequence. The avi-tag is attached with an 8 amino-acid linker sequence GGSGGGGS (SEQ ID NO. 11), resulting in the full C-terminal fusion
(§3) Recombinant proteins were generated as N-terminal fusions of 9× His tag—E. coli Maltose Binding Protein (MBP), with or without a C-terminal Avi-tag.^1 CDK2 and His-MBP-RB1[773-924]-c-avi were expressed in E. coli while the remainder were expressed in Sf21 insect cells. Genes were synthesized commercially (GeneArt and Twist Bioscience) using codon frequencies appropriate to the respective organisms and proprietary codon optimization strategies, and inserted into pET 24 (E. coli) or pDEST8 (insect) vectors already containing the 9× His-MBP tag using standard methods of PCR and Gibson Assembly.^2 E. coli expression was performed by auto-induction overnight at 18 or 21 C. For insect cell expression, bacmids and viruses were created,^3 then used to synchronously infect Sf21 insect cells with harvest at 40-48 hrs., per standard protocols.^4
(§4) For CDK4/Cyclin D1 and CDK6/Cyclin D3, the complexes were expressed by simultaneous co-infection of insect cells by three separate viruses including one expressing untagged E. coli BirA. The expression media is supplemented with 50 uM d-biotin. The resulting protein complexes purified similarly. After lysis and clarification, the complex is purified by IMAC, Superdex 200 26/60 size exclusion, tag cleavage by human rhinovirus 3C protease, Superdex 75 26/60 size exclusion and reverse IMAC. BirA is typically not retained on the first IMAC, and excess CDK or Cyclin monomer is separated on the Superdex 200 size exclusion. Cleaved His-MBP and remaining monomer are removed by the Superdex 75 size exclusion and the reverse IMAC step. Final concentration by centrifugal concentrators as described above.
(§5) For the is-MBP-RB1[773-924]-c-avi, the protein was lysed by sonication and clarified by centrifugation. […]

In a further test the target is CDK6/cyclinD3 (Homo sapiens, UniProt Q00534). As to conditions: CDK6/cyclinD3 10 pM, 1 mM ATP, 60 min at 25° C. As for the experimental part: as §1, §2, §3, §4, §5
The target of the next test is CDK1/CyclinB1 (Homo sapiens, UniProt P06493). As to conditions: CDK1/CyclinB1 10 pM, 1 mM ATP, 60 min at 25° C. How it is done:
as §1, §2, §3
(§6) For CDK2/Cyclin E and CDK1/Cyclin B, the CDK and Cyclin proteins were expressed separately, lysed by sonication and clarified by centrifugation. The fusion proteins were each separately purified by immobilized metal ion affinity chromatography (IMAC) (5 mL HisTrap, Cytiva) and Superdex 200 26/60 (Cytiva) size-exclusion and complexed in vitro (1-3 hrs incubation at room temperature) prior to tag cleavage by recombinant his-tagged Tobacco Etch Virus protease or his-tagged Human rhinovirus 3C protease, as appropriate. The cleaved complex is further purified by Superdex 75 26/60 (Cytiva) size-exclusion followed by reverse-IMAC, in which the complex is in the column flow-through and residual His-MBP and his-tagged proteases are retained. The final complex is concentrated as desired by centrifugal concentration (Amicon Ultra 10,000 Da MWCO 15 mL concentrators, Millipore).
as §5

The target of the next test is CDK2/CyclinE1 (Homo sapiens, UniProt P24941). Conditions: CDK2/CyclinE1 100 pM, 1 mM ATP, 60 min at 25° C. How it is done: as §1, §2, §3, §6
For E. coli expressed CDK2 and His-MBP-RB1[773-924]-c-avi, the proteins were biotinylated in vitro after the first IMAC step.^1
as §5

For `COc1n[nH]cc1Nc1ncc2c(n1)N([C@@H]1CCC[C@@H](O)C1)C(=O)C21CC1` [Example 12, 7′-((1R,3R)-3-hydroxycyclohexyl)-2′-((3-methoxy-1H-pyrazol-4-yl)amino)spiro[cyclopropane-1,5′-pyrrolo[2,3-d]pyrimidin]-6′(7′H)-one], the IC50 against CDK4/cyclinD1 was 7370 nM; against CDK6/cyclinD3, 7900 nM; on CDK1/CyclinB1, 2240 nM; on CDK2/CyclinE1, 20 nM.
As for `O=C1N([C@@H]2CCC[C@@H](O)C2)c2nc(Nc3c[nH]nc3Cl)ncc2C12CC2` [Example 13, 2′-((3-chloro-1H-pyrazol-4-yl)amino)-7′-((1R,3R)-3-hydroxycyclohexyl)spiro[cyclopropane-1,5′-pyrrolo[2,3-d]pyrimidin]-6′(7′H)-one], the IC50 worked out at 5280 nM against CDK4/cyclinD1, 7100 nM against CDK6/cyclinD3, 920 nM at CDK1/CyclinB1 and 12 nM at CDK2/CyclinE1.
Consider `O=C1N([C@@H]2CCC[C@@H](O)C2)c2nc(Nc3c[nH]nc3C3CC3)ncc2C12CC2` [Example 14, 2′-((3-cyclopropyl-1H-pyrazol-4-yl)amino)-7′-((1R,3R)-3-hydroxycyclohexyl)spiro[cyclopropane-1,5′-pyrrolo[2,3-d]pyrimidin]-6′(7′H)-one], for which the IC50 against CDK4/cyclinD1 is not below 10000 nM; at CDK6/cyclinD3, not below 10000 nM; against CDK1/CyclinB1 it was 1550 nM; against CDK2/CyclinE1, 30 nM.
On to `O=C1N([C@@H]2CCC[C@@H](O)C2)c2nc(Nc3c[nH]nc3C(F)(F)F)ncc2C12CC2` [Example 15, 7′-((1R,3R)-3-hydroxycyclohexyl)-2′-((3-(trifluoromethyl)-1H-pyrazol-4-yl)amino)spiro[cyclopropane-1,5′-pyrrolo[2,3-d]pyrimidin]-6′(7′H)-one], for which the IC50 is not below 10000 nM on CDK4/cyclinD1, not below 10000 nM at CDK6/cyclinD3, 3720 nM at CDK1/CyclinB1 and 39 nM against CDK2/CyclinE1.
As for `COCCn1cc(Nc2ncc3c(n2)N([C@@H]2CCC[C@@H](O)C2)C(=O)C32CC2)cn1` [Example 16, 7′-((1R,3R)-3-hydroxycyclohexyl)-2′-((1-(2-methoxyethyl)-1H-pyrazol-4-yl)amino)spiro[cyclopropane-1,5′-pyrrolo[2,3-d]pyrimidin]-6′(7′H)-one], the IC50 was 1230 nM against CDK4/cyclinD1, 1800 nM at CDK6/cyclinD3, 2360 nM at CDK1/CyclinB1 and 49 nM at CDK2/CyclinE1.
For the compound `Cc1n[nH]cc1Nc1ncc2c(n1)N([C@@H]1CCCC[C@@H](O)C1)C(=O)C21CC1` [Example 17, 7′-(3-hydroxycycloheptyl)-2′-((3-methyl-1H-pyrazol-4-yl)amino)spiro[cyclopropane-1,5′-pyrrolo[2,3-d]pyrimidin]-6′(7′H)-one], the IC50 at CDK4/cyclinD1 is not below 10000 nM; on CDK6/cyclinD3 it was not below 10000 nM; at CDK1/CyclinB1, 4490 nM; against CDK2/CyclinE1, 41 nM.
On to `O=C1N([C@@H]2CCCC[C@@H](O)C2)c2nc(Nc3c[nH]nc3Cl)ncc2C12CC2` [Example 19, 2′-((3-chloro-1H-pyrazol-4-yl)amino)-7′-((1R,3R)-3-hydroxycycloheptyl)spiro[cyclopropane-1,5′-pyrrolo[2,3-d]pyrimidin]-6′(7′H)-one], for which the IC50 is 7580 nM on CDK4/cyclinD1, 9160 nM against CDK6/cyclinD3, 4120 nM at CDK1/CyclinB1 and 44 nM against CDK2/CyclinE1.
The matching figures for `N#Cc1n[nH]cc1Nc1ncc2c(n1)N([C@@H]1CCC[C@@H](O)C1)C(=O)C21CC1` [Example 20, 4-((7′-((1R,3R)-3-hydroxycyclohexyl)-6′-oxo-6′,7′-dihydrospiro[cyclopropane-1,5′-pyrrolo[2,3-d]pyrimidin]-2′-yl)amino)-1H-pyrazole-3-carbonitrile]: 2160 nM, 2660 nM, 660 nM and 8 nM.
For `COCc1n[nH]cc1Nc1ncc2c(n1)N([C@@H]1CCC[C@@H](O)C1)C(=O)C21CC1` [Example 21, 7′-((1R,3R)-3-hydroxycyclohexyl)-2′-((3-(methoxymethyl)-1H-pyrazol-4-yl)amino)spiro[cyclopropane-1,5′-pyrrolo[2,3-d]pyrimidin]-6′(7′H)-one], in that order: 2260 nM, 4460 nM, 2500 nM and 17 nM.
The matching figures for `COCCOc1n[nH]cc1Nc1ncc2c(n1)N([C@@H]1CCC[C@@H](O)C1)C(=O)C21CC1` [Example 22, 7′-((1R,3R)-3-hydroxycyclohexyl)-2′-((3-(2-methoxyethoxy)-1H-pyrazol-4-yl)amino)spiro[cyclopropane-1,5′-pyrrolo[2,3-d]pyrimidin]-6′(7′H)-one]: 5260 nM, 8120 nM, 2960 nM and 34 nM.
On to `CCOc1n[nH]cc1Nc1ncc2c(n1)N([C@@H]1CCC[C@@H](O)C1)C(=O)C21CC1` [Example 23, 2′-((3-ethoxy-1H-pyrazol-4-yl)amino)-7′-((1R,3R)-3-hydroxycyclohexyl)spiro[cyclopropane-1,5′-pyrrolo[2,3-d]pyrimidin]-6′(7′H)-one], for which the IC50 is 9450 nM on CDK4/cyclinD1, not below 10000 nM against CDK6/cyclinD3, 2430 nM against CDK1/CyclinB1 and 15 nM on CDK2/CyclinE1.
For `O=C1N([C@@H]2CCC[C@@H](O)C2)c2nc(Nc3c[nH]nc3O[C@@H]3COC[C@H]3F)ncc2C12CC2` [Example 24, 2′-((3-(((3R,4R)-4-fluorotetrahydrofuran-3-yl)oxy)-1H-pyrazol-4-yl)amino)-7′-((1R,3R)-3-hydroxycyclohexyl)spiro[cyclopropane-1,5′-pyrrolo[2,3-d]pyrimidin]-6′(7′H)-one], in that order: 3910 nM, not below 10000 nM, 2020 nM and 12 nM.
The matching figures for `O=C1N([C@@H]2CCC[C@@H](O)C2)c2nc(Nc3c[nH]nc3O[C@H]3COC[C@@H]3F)ncc2C12CC2` [Example 25, 2′-((3-(((3S,4S)-4-fluorotetrahydrofuran-3-yl)oxy)-1H-pyrazol-4-yl)amino)-7′-((1R,3R)-3-hydroxycyclohexyl)spiro[cyclopropane-1,5′-pyrrolo[2,3-d]pyrimidin]-6′(7′H)-one]: not below 10000 nM, not below 10000 nM, 2440 nM and 24 nM.
